Results from patent US20260274892A1, “MACROCYCLIC BROAD SPECTRUM ANTIBIOTICS” (RQx Pharmaceuticals, Inc., priority 2017, published 2026).

What was measured:
[1] = test system: Methicillin Resistant Staphylococcus aureus strain USA 200; assay: Minimum inhibitory concentration (MIC), CLSI broth micro-dilution, S. aureus; assay type: cell-based; conditions: Staphylococcus aureus, MRSA / USA200, MRSA USA 200, cation adjusted Mueller Hinton Broth + 0.002% Tween-80, 35° C., 22 hours
Method in brief: (§1)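 Colonies grown 20 h at 35° C on Trypticase Soy agar (MRSA) or Luria agar (E. coli) were suspended in cation-adjusted Mueller Hinton broth with 0.002% Tween-80. Suspensions were added at OD600 0.0005 to 10-point twofold compound dilutions, then incubated 22 h at 35° C.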

[2] = test system: Escherichia coli ATCC 25922; assay: Minimum inhibitory concentration (MIC), CLSI broth micro-dilution, E. coli; assay type: cell-based; conditions: Escherichia coli, ATCC25922, 22 h
Method in brief: as §1

[3] = Table 6, cation adjusted Mueller Hinton Broth + 0.002% Tween-80, 35° C.

SMILES | MIC ([1]; Table 6) | MIC [2, 3] | MIC ([1]; Table 8) | MIC ([2]; Table 8, cation adjusted Mueller Hinton Broth + 0.002% Tween-80, 35° C.)
CCCCCCCCc1ccc(C(=O)N[C@@H](CCC(=O)N(C)C)C(=O)N(C)[C@@H]2C(=O)N[C@@H](C)C(=O)N[C@H](C(=O)NCC#N)Cc3ccc(OCCN)c(c3)-c3cc2ccc3OCCN)c(C)c1 (racemic) [Compound 444, rac-(2S)-N,N′,N′-trimethyl-2-[(2-methyl-4-octyl-benzoyl)amino]-N-[rac-(7S,10S,13S)-3,18-bis(2-aminoethoxy)-13-(cyanomethylcarbamoyl)-10-methyl-8,11-dioxo-9,12-diazatricyclo[13.3.1.12,6]icosa-1(19),2,4,6(20),15,17-hexaen-7-yl]pentanediamide] | 0.064 µM | 4.1 µM |  | 
CCCCCCCCc1ccc(C(=O)N[C@@H](CC(=O)NC)C(=O)N(C)[C@@H]2C(=O)N[C@@H](C)C(=O)N[C@H](C(=O)NCC#N)Cc3ccc(OCCN)c(c3)-c3cc2ccc3OCCN)c(C)c1 (racemic) [Compound 443, rac-(2S)-N,N′-dimethyl-2-[(2-methyl-4-octyl-benzoyl)amino]-N-[rac-(7S,10S,13S)-3,18-bis(2-aminoethoxy)-13-(cyanomethylcarbamoyl)-10-methyl-8,11-dioxo-9,12-diazatricyclo[13.3.1.12,6]icosa-1(19),2,4,6(20),15,17-hexaen-7-yl]butanediamide] | 0.27 µM | 4.2 µM |  | 
CCCCCCCCc1ccc(C(=O)N[C@@H](CCC(=O)NCC)C(=O)N(C)[C@@H]2C(=O)N[C@@H](C)C(=O)N[C@H](C(=O)NCC#N)Cc3ccc(OCCN)c(c3)-c3cc2ccc3OCCN)c(C)c1 (racemic) [Compound 445, rac-(2S)-N′-ethyl-N-methyl-2-[(2-methyl-4-octyl-benzoyl)amino]-N-[rac-(7S,10S,13S)-3,18-bis(2-aminoethoxy)-13-(cyanomethylcarbamoyl)-10-methyl-8,11-dioxo-9,12-diazatricyclo[13.3.1.12,6]icosa-1(19),2,4,6(20),15,17-hexaen-7-yl]pentanediamide] | 0.13 µM | 4.1 µM |  | 
CCCCCCCc1ccc(-c2ncc(C(=O)N[C@@H](CCN)C(=O)N(C)[C@@H]3C(=O)N[C@@H](C)C(=O)N[C@H](C(=O)NCC#N)Cc4ccc(OCCN)c(c4)-c4cc3ccc4OCCN)c(C)n2)cc1 (racemic) [Compound 240, rac-(8S,11S,14S)-3,18-bis(2-aminoethoxy)-N-(cyanomethyl)-11-methyl-14-[methyl-[rac-(2S)-4-amino-2-[[2-(4-heptylphenyl)-4-methyl-pyrimidine-5-carbonyl]amino]butanoyl]amino]-10,13-dioxo-9,12-diazatricyclo[13.3.1.12,6]icosa-1(18),2(20),3,5,15(19),16-hexaene-8-carboxamide] | 0.012 µM | 0.13 µM |  | 
Cc1nc(-c2ccc(C(C)(C)C)cc2)ncc1C(=O)N[C@@H](CCNC(N)=O)C(=O)N(C)[C@@H]1C(=O)N[C@@H](C)C(=O)N[C@H](C(=O)NCC#N)Cc2ccc(OCCN)c(c2)-c2cc1ccc2OCCN (racemic) [Compound 452, rac-(8S,11S,14S)-3,18-bis(2-aminoethoxy)-N-(cyanomethyl)-11-methyl-14-[methyl-[rac-(2S)-2-[[2-(4-tert-butylphenyl)-4-methyl-pyrimidine-5-carbonyl]amino]-4-ureido-butanoyl]amino]-10,13-dioxo-9,12-diazatricyclo[13.3.1.12,6]icosa-1(18),2(20),3,5,15(19),16-hexaene-8-carboxamide] | 0.13 µM | 1.3 µM |  | 
C[C@@H]1NC(=O)[C@@H](N(C)C(=O)[C@H](CCN)NC(=O)[C@H]2CC[C@@H](c3ccc(C(C)(C)C)cc3)CC2)c2ccc(OCCN)c(c2)-c2cc(ccc2OCCN)C[C@@H](C(=O)NCC#N)NC1=O [Compound 392, rac-(8S,11S,14S)-3,18-bis(2-aminoethoxy)-N-(cyanomethyl)-11-methyl-14-[methyl-[rac-(2S)-4-amino-2-[[4-(4-tert-butylphenyl)cyclohexanecarbonyl]amino]butanoyl]amino]-10,13-dioxo-9,12-diazatricyclo[13.3.1.12,6]icosa-1(18),2(20),3,5,15(19),16-hexaene-8-carboxamide] | 0.063 µM | 3 µM |  | 
CCCCCCCc1ccc(C(=O)N[C@H](CCN)C(=O)N(C)[C@@H]2C(=O)N[C@@H](C)C(=O)N[C@H](C(=O)NCC#N)Cc3ccc(OCCN)c(c3)-c3cc2ccc3OCCN)c(C)c1 (racemic) [Compound 456, rac-(8S,11S,14S)-3,18-bis(2-aminoethoxy)-N-(cyanomethyl)-11-methyl-14-[methyl-[rac-(2R)-4-amino-2-[(4-heptyl-2-methyl-benzoyl)amino]butanoyl]amino]-10,13-dioxo-9,12-diazatricyclo[13.3.1.12,6]icosa-1(18),2(20),3,5,15(19),16-hexaene-8-carboxamide] | 0.56 µM | 3.3 µM |  | 
Cc1nc(-c2ccc(CC(C)C)cc2)ncc1C(=O)N[C@@H](CCO)C(=O)N(C)[C@@H]1C(=O)N[C@@H](C)C(=O)N[C@H](C(=O)NCC#N)Cc2ccc(OCCN)c(c2)-c2cc1ccc2OCCN (racemic) [Compound 458, rac-(8S,11S,14S)-3,18-bis(2-aminoethoxy)-N-(cyanomethyl)-11-methyl-14-[methyl-[rac-(2S)-4-hydroxy-2-[[2-(4-isobutylphenyl)-4-methyl-pyrimidine-5-carbonyl]amino]butanoyl]amino]-10,13-dioxo-9,12-diazatricyclo[13.3.1.12,6]icosa-1(18),2(20),3,5,15(19),16-hexaene-8-carboxamide] | 0.033 µM | 1.1 µM |  | 

More lines, now with the values ahead:

MIC ([1]; Table 6) | MIC [2, 3] | MIC ([1]; Table 8) | MIC ([2]; Table 8, cation adjusted Mueller Hinton Broth + 0.002% Tween-80, 35° C.) | SMILES
0.016 µM | 0.38 µM |  |  | Cc1nc(-c2ccc(C(C)(C)C)cc2)nc(C(C)C)c1C(=O)N[C@@H](CCN)C(=O)N(C)[C@@H]1C(=O)N[C@@H](C)C(=O)N[C@H](C(=O)NCC#N)Cc2ccc(OCCN)c(c2)-c2cc1ccc2OCCN [Compound 487]
0.19 µM | 8 µM |  |  | Cc1nc(-c2ccc(C(C)(C)C)cc2)nc(C)c1C(=O)N[C@H](CO)C(=O)N[C@@H](CCN)C(=O)N(C)[C@@H]1C(=O)N[C@@H](C)C(=O)N[C@H](C(=O)NCC#N)Cc2ccc(OCCN)c(c2)-c2cc1ccc2OCCN (racemic) [Compound 467, rac-(8S,11S,14S)-3,18-bis(2-aminoethoxy)-N-(cyanomethyl)-11-methyl-14-[methyl-[rac-(2S)-4-amino-2-[[rac-(2R)-2-[[2-(4-tert-butylphenyl)-4,6-dimethyl-pyrimidine-5-carbonyl]amino]-3-hydroxy-propanoyl]amino]butanoyl]amino]-10,13-dioxo-9,12-diazatricyclo[13.3.1.12,6]icosa-1(18),2(20),3,5,15(19),16-hexaene-8-carboxamide]
0.023 µM | 1 µM |  |  | C[C@@H]1NC(=O)[C@@H](N(C)C(=O)[C@H](CCN)NC(=O)c2cnc(-c3ccc(C(C)(C)C)cc3)nc2N(C)C)c2ccc(OCCN)c(c2)-c2cc(ccc2OCCN)C[C@@H](C(=O)NCC#N)NC1=O [Compound 490]
0.036 µM | 0.24 µM |  |  | CCCCCCCCCCCCCC(=O)N1C[C@H](N)CC1C(=O)N(C)[C@@H]1C(=O)N[C@@H](C)C(=O)N[C@H](C(=O)NCC#N)Cc2ccc(OCCN)c(c2)-c2cc1ccc2OCCN (mixture of isomers) [Compound 482, rac-(8S,11S,14S)-3,18-bis(2-aminoethoxy)-14-[(4-amino-1-tetradecanoyl-pyrrolidine-2-carbonyl)-methyl-amino]-N-(cyanomethyl)-11-methyl-10,13-dioxo-9,12-diazatricyclo[13.3.1.12,6]icosa-1(18),2(20),3,5,15(19),16-hexaene-8-carboxamide]
0.047 µM | 4 µM |  |  | Cc1nc(-c2ccc(C(C)(C)C)cc2)nc(C)c1C(=O)N[C@@H](CO)C(=O)N[C@@H](CCN)C(=O)N(C)[C@@H]1C(=O)N[C@@H](C)C(=O)N[C@H](C(=O)NCC#N)Cc2ccc(OCCN)c(c2)-c2cc1ccc2OCCN (racemic) [Compound 465, rac-(8S,11S,14S)-3,18-bis(2-aminoethoxy)-N-(cyanomethyl)-11-methyl-14-[methyl-[rac-(2S)-4-amino-2-[[rac-(2S)-2-[[2-(4-tert-butylphenyl)-4,6-dimethyl-pyrimidine-5-carbonyl]amino]-3-hydroxy-propanoyl]amino]butanoyl]amino]-10,13-dioxo-9,12-diazatricyclo[13.3.1.12,6]icosa-1(18),2(20),3,5,15(19),16-hexaene-8-carboxamide]
0.55 µM | 4.4 µM |  |  | Cc1nc(-c2ccc(O)cc2)nc(C)c1C(=O)N[C@@H](CCN)C(=O)N(C)[C@@H]1C(=O)N[C@@H](C)C(=O)N[C@H](C(=O)NCC#N)Cc2ccc(OCCN)c(c2)-c2cc1ccc2OCCN (racemic) [Compound 542, rac-(8S,11S,14S)-3,18-bis(2-aminoethoxy)-N-(cyanomethyl)-11-methyl-14-[methyl-[rac-(2S)-4-amino-2-[[2-(4-hydroxyphenyl)-4,6-dimethyl-pyrimidine-5-carbonyl]amino]butanoyl]amino]-10,13-dioxo-9,12-diazatricyclo[13.3.1.12,6]icosa-1(18),2(20),3,5,15(19),16-hexaene-8-carboxamide]
 |  | 1.1 µM | 2.3 µM | Cc1nc(-c2ccc(OC(C)C)cc2)nc(C)c1C(=O)N[C@@H](CCN)C(=O)N(C)[C@@H]1C(=O)N[C@@H](C)C(=O)N[C@H](C(=O)O)Cc2ccc(O)c(c2)-c2cc1ccc2OCCN (racemic) [Compound 643, rac-(8S,11S,14S)-18-(2-aminoethoxy)-3-hydroxy-11-methyl-14-[methyl-[rac-(2S)-4-amino-2-[[2-(4-isopropoxyphenyl)-4,6-dimethyl-pyrimidine-5-carbonyl]amino]butanoyl]amino]-10,13-dioxo-9,12-diazatricyclo [13.3.1.12,6]icosa-1(18),2(20),3,5,15(19), 16-hexaene-8-carboxylic acid]
